Values joined by “and” are separate entries in the source; they are usually repeats but may differ in a detail not shown here. Equal entries are not always repeated. Where two headings read alike, the source gives them in different places.
How the values were obtained:
Akt = settings: Lu et al. 2009; cited from earlier work
[1] = Toxicokinetics in GLP repeat-dose rat study; settings: Sprague Dawley, in vivo, iv, 0.75 mg/kg/day, study Day 4
Source text: These changes were reversible. […] Inflammation was often accompanied by mesothelial hypertrophy.

TNBC cell lines = assay: Cytotoxicity against TNBC cells; type: cell-based; settings: single agent; present-tense example
Description: LB-100 inhibits PP2A activity and is cytotoxic to TNBC cells. LB-100 synergizes with chemotherapeutic drugs to enhance cytotoxicity against TNBC cells. LB-100 also enhances the effects of chemotherapy in TNBC xenografts. LB-100 chemosensitizes doxorubicin and cisplatin to TNBC cells and/or has a synergistic cytotoxic effect with doxorubicin and/or cisplatin against TNBC cells.
Both doxorubicin (0.2 μg/ml) and cisplatin (2 μg/ml) in combination with LB-100 are cytotoxic to TNBC cell lines. The addition of LB-100 sensitizes TNBC cells to doxorubicin and cisplatin. TNBC cell lines include HCC1599, HCC1937, HCC1599, MDA-MB-468, HCC38, HCC70, HCC1806, HCC1187, DU4475, BT-549, Hs-578T, MDA-MB-231, MDA-MB-436, MDA-MB-157, MDA-MB-453, BT-20, and HCC1395.

[2] = system: patients with advanced solid tumors; settings: in vivo
Description: This is a Phase I, open label, multicenter, two-part, dose-escalation study of LB-100 administered intravenously in patients with advanced solid tumors. Two dose regimens are explored. In the first regimen (Part 1), single agent LB-100 is given daily on Days 1 through 3 of every 21 day cycle. In the second regimen (Part 2), docetaxel-naïve patients are treated with LB-100 given daily on Days 1 through 3 in combination with a fixed dose of docetaxel (either 60 mg/m^2 or 75 mg/m^2) given on Day 2 of every 21 day cycle. Once the MTD of single agent LB-100 is reached, 3 additional patients are enrolled in an MTD confirmation cohort. Part 2 enrolls patients once the MTD of single agent LB-100 is determined in Part 1.
The starting dose of L8-100 for Part 1 is 0.25 mg/m^2. The starting dose of LB-100 for Part 2 is 2 dose levels below the MTD determined in Part 1, administered in combination with docetaxel 60 mg/m^2. Once the MTD of LB-100+docetaxel 60 mg/m^2 is determined, the dose of LB-100 is reduced 2 dose levels and administered in combination with docetaxel 75 mg/m^2. The dose of LB-100 is then be escalated to the full LB-100 dose (of the LB-100+docetaxel 60 mg/m^2 MTD) and administered in combination with docetaxel 75 mg/m^2. Once the MTD of the combination of LB-100+docetaxel (either 60 mg/m^2 or 75 mg/m^2) is reached, 3 additional patients are enrolled in an MTD/RD confirmation cohort.
LB-100 is administered in escalating dose levels. Enrollment in each dose cohort proceeds in the standard “3+3” schema. In each cohort, the first patient enrolled completes Cycle 1 treatment and safety monitoring prior to the enrollment of the second and third patients; the second and third patients may be enrolled simultaneously. DLTs are evaluated and recorded during the first 2 cycles of treatment.
Initially, the decision to escalate to the next dose level is be based on the observation of DLT during Cycle 1. If no DLT is observed, escalation proceeds to the next cohort. If a DLT is observed in Cycle 2 in the study, the escalation strategy is evaluated moving forward. Escalation continues until the maximum administered dose (MAD), maximum tolerated dose (MTD) and recommended dose (RD) are determined.
On Days 1, 2 and 3 of each cycle, LB-100 was infused over 15 minutes.
LB-100 was administered daily on Days 1 through 3 of every 21 day cycle to patients at the following dose levels:
Enrollment in each dose cohort will proceed in the standard “3+3” schema where 3 patients are initially enrolled per cohort; Scheme 2. In each cohort, the first patient enrolled will complete Cycle 1 treatment and safety monitoring prior to the enrollment of the second and third patients; the second and third patients may be enrolled simultaneously. Dose limiting toxicities (DLTs) will be evaluated and recorded during the first 2 cycles of treatment. Initially, the decision to escalate to the next dose level will be based on the observation of DLT during Cycle 1. If no DLT is observed, escalation will proceed to the next cohort. Note: if a DLT is observed in Cycle 2 in the study, the escalation strategy will be evaluated moving forward. If, however, DLT is observed in 1 of the 3 patients, an additional 3 patients must be enrolled at that dose. In a cohort of 6, if one patient has DLT, then dose escalation may proceed; if 2 or more patients have DLT, then that dose will be considered the maximum administered dose (MAD) and dose escalation will cease. The MTD is defined as one dose level below the MAD. Once the MTD of single agent LB-100 is reached, 3 additional patients will be enrolled in an MTD confirmation cohort. At least 6 patients must be treated at the MTD to determine the safety of that dose as a basis for the starting dose of LB-100 in Part 2 of this study.
The NCI Common Terminology Criteria for Adverse Events (CTCAE) Version 4.0 will be used to grade toxicity.

[3] = system: male and female Sprague Dawley rats; assay: GLP repeat-dose toxicity study, daily IV slow bolus x5 days
in vivo = settings: beagle, dog, 0.15 mg/kg
[4] = system: male and female beagle dogs; assay: GLP repeat dose toxicity study, IV daily x5 days
Description: In the GLP repeat dose dog study, LB-100 was administered by intravenous injection (slow bolus push) at dose levels of 0.15, 0.30, and 0.75 mg/kg daily for 5 consecutive days.
Multilead (I, II, III, aVR, aVL, aVF, and V2) ECGs were recorded for all animals prior to randomization (Day −8) and for all surviving animals on Day 4 (recorded approximately 2 to 4 hours following dose administration) and Day 27.
Blood pressure (systolic, diastolic, and mean arterial pressure) data were recorded for all animals once during the pretest period (Day −8) and for all surviving animals on study Day 4 (recorded approximately 2 to 4 hours following dose administration) and Day 27.

[5] = system: HeLa cells, OS-17, MKN28, MKN45, MGC803, and SGC7901 cells; assay: Growth of Mad2-overexpressing cell lines in vitro; type: cell-based, human; settings: all cell lines; present-tense example
Description: Compound LB-100 inhibits PP2A phosphatase in cancer cells which in turn induces Mad-2 phosphorylation while suppressing Mad-2 protein levels. In order to characterize the effects of LB-100 on cancers overexpressing Mad2, tumor cell lines carrying Mad2-overexpressing mutations are tested. LB-100 inhibits the growth of the cancer cells in in vitro assays. […] Exposure to LB-100 reduces the expression of Mad-2 in the cells.
Mad2-overexpressing HeLa cells (HeLa Mad-2 O/E), osteosarcoma human cells (OS-17) and gastric cell lines (MKN28, MKN45, MGC803, and SGC7901) express high levels of Mad2 (Yu, L. et al. 2010). LB-100 inhibits the growth of the HeLa cells, OS-17, MKN28, MKN45, MGC803, and SGC7901 cells in vitro. […] Exposure to LB-100 reduces the expression of Mad-2 in all cell lines.

[6] = Solubility and stability of LB-100 solution; type: physicochemical; settings: for stability of formulation: in monosodium glutamate, pH 10.5
Source text: LB-100 is a water soluble enantiomeric zwitterion provided as a sterile solution for intravenous administration. […] Phosphate buffered saline (PBS) was used as the vehicle for LB-100 administration in preclinical efficacy studies and sodium bicarbonate 4.2% for injection was used as the vehicle for GLP toxicity studies.

beagle dogs = assay: Non-GLP dose ranging toxicity study, IV every 4 days x4 doses; type: in vivo, dog
advanced solid tumors = assay: Phase I Part 1 single agent LB-100: tumor response (RECIST 1.1); type: in vivo, human
Source text: Two dose regimens are explored.
Although response is not the primary endpoint of this study, patients with measurable disease will be assessed at baseline and during the study by standard criteria. Patients should be reevaluated after receiving 2 cycles of study therapy and then after every 2 cycles thereafter. In the event objective response (PR or CR) is noted, changes in tumor measurements must be confirmed by repeat assessments that should be performed at least 4 weeks after the criteria for response are first met.
Response and progression will be evaluated in this study using the international criteria (version 1.1) proposed by the Response Evaluation Criteria in Solid Tumors (RECIST) Committee [Eur J Cancer. 45 (2009) 228-247]. Changes in only the largest diameter (unidimensional measurement) of the tumor lesions are used in the RECIST 1.1 guidelines. Note: Lesions are either measurable or non-measurable using the criteria provided below.
• Complete Response (CR): Disappearance of all target lesions.
The patient's best overall response assignment will depend on findings of both target and non-target disease and will also take into consideration the appearance of new lesions. It is assumed that at each protocol-specified time point, a response assessment occurs. Table provides a summary of the overall response status calculation at each time point for patients who have measurable disease at baseline.
In the case of SD, follow-up measurements must have met the SD criteria at least once after study entry at a minimum interval at 5 weeks.

[7] = system: human glioblastoma cell line, U373; settings: simultaneous exposure, US 2010/0029683 A1; cited from earlier work
[8] = Non-GLP dose ranging toxicity study, daily IV infusion x4 days (NCI); settings: male, Fischer, rat, in vivo, iv
Description: (§1) In a non-GLP dose ranging study in male Fischer rats conducted by the NCI, LB-100 was administered by daily intravenous (IV) infusion at 0.5, 0.75 and 1.5 mg/kg/day for 4 consecutive days.

male Fischer rats = assay: as above
Description: as §1

For `CCN1CCCC1CNC(=O)c1cc(S(=O)(=O)CC)c(NC)cc1OC` (stereo not drawn) [LB-102], the “phosphorylation of Akt” value (Akt) is given as “increased”.
`CN1CCN(C(=O)C2C(C(=O)O)[C@H]3CC[C@@H]2O3)CC1` (mixture of isomers) [LB-100, 3-(4methylpiperazine-carbonyl)-7-oxalobicyclo[2.2.1]heptane-2-carboxylic acid] gave an AUC(0-t) ([1]; female, females) of 691 ng·h/mL, a C0 ([1]; female, females) of 2350 ng/mL and an AUC(0-t) ([1]; male, males) of 596 ng·h/mL. For the same molecule, the C0 ([1]; male, males) was 1800 ng/mL, the “cytotoxicity to TNBC cells” value (TNBC cell lines) was “cytotoxic” and the adverse events ([2]; human) was “No adverse events attributable to LB-100”. The dyspnea ([2]; human) was “grade 1”, the tolerability ([2]; human) was “without any symptoms attributable to LB-100” and the “vomiting, related to LB-100” value ([2]; human) was “grade 3”. The “adverse events attributed to a bleeding rectal mass” value ([2]; human, 1 cycle) was “grade 3 anemia and grade 2 weakness”, the “neuropathy, possibly related to LB-100” value ([2]; human, 4 cycles) was “Grade 1” and the adverse events [2] was “No new adverse events”. The dose limiting toxicity [2] was “no dose limiting toxicity”, the “relation of pulmonary embolism to treatment” value [2] was “not related” and the “epicardium and subepicardium of atria” value ([3]; 0.5, 0.75, 1.25 mg/kg/day males, 1.25 mg/kg/day females) was “Minimal to mild subacute inflammation”. The kidney finding ([3]; 0.75 and 1.25 mg/kg/day, males and females) was “adverse, test article-related nephrosis of the kidneys”, the “test article-related effects on urinalysis parameters” value ([3]; Day 5, reversible) was “observed in all treatment groups” and the “severely toxic dose in 10% of the animals (STD 10)” value ([3]; daily IV x5 days) was 0.75 mg/kg/day. For the same molecule, the AUC(0-t) (in vivo; female) was 335 ng·h/mL, the AUC(0-t) (in vivo; male) was 267 ng·h/mL and the tolerability ([4]; 0.15 mg/kg/day) was “well tolerated”. For the same molecule, the “test article-related lethality, animals” value ([4]; 0.75 mg/kg/day group, before fourth dose) was 2 of 10, the “Highest Non-Severely Toxic Dose (HNSTD)” value ([4]; daily IV x5 days) was 0.15 mg/kg and the ECGs ([4]; dog, in vivo) was “within normal limits”. For the same molecule, the blood pressure ([4]; dog, in vivo) was “unaffected”, the cytotoxicity [5] was “Dose-dependent cytotoxicity” and the water solubility ([6]; enantiomeric zwitterion) was “water soluble”. The stability of formulation ([6]; refrigerated temperatures) was “at least 8 hours”, the stability of formulation ([6]; −20° C.) was “stable for months” and the “racemization of separated enantiomers” value ([6]; in solution) was “racemize rapidly”. For the same molecule, the “possible test article-related clinical observation” value (beagle dogs; 1.0 mg/kg, one female, study Day 13) was “intermittent tremors”, the survival (beagle dogs; 0.1-1.0 mg/kg) was “no LB-100-related effects on survival” and the “body weight gain and food consumption” value (beagle dogs; 0.5 and 1.0 mg/kg, females) was “lower body weight gains and food consumption”. The “no-observed-effect level (NOEL)” value (beagle dogs; IV every 4 days x4 doses) was 0.25 mg/kg, the signs of toxicity (beagle dogs; dog, in vivo, 1 mg/kg) was “almost no signs of toxicity” and the “duration of stable disease” value (advanced solid tumors; Patient 10, pancreatic cancer, 0.83 mg/m^2) was 39 weeks. The “time remained stable since starting LB-100” value (advanced solid tumors; Patient 10, pancreatic cancer, interim (8 cycles)) was 6 months, the “cycles on treatment with stable disease” value (advanced solid tumors; Patient 17, metastatic thymoma, DL5 1.75 mg/m^2) was 7 cycles and 8 cycles and the “cycles of stable disease” value (advanced solid tumors; breast, ovarian, carcinoid and testicular cancer patients) was 4-6 cycles. The “cytotoxic effect of cisplatin” value [7] was “enhanced”, the “cytotoxic effect of doxorubicin” value [7] was “enhanced” and the “cytotoxic effect of taxol” value [7] was “enhanced”. The “cytotoxic effect of temozolomide” value [7] was “enhanced”, the MTD at 4 days [8] was 0.75 mg/kg/day and the nephrosis severity (male Fischer rats; 0.75 mg/kg/day) was “mild”. For the same molecule, the “no-observed-adverse-effect-level (NOAEL)” value (male Fischer rats; 0.5, 0.75 and 1.5 mg/kg/day x4 days) was “not established”, the heart toxicity (male Fischer rats; 0.75 and 1.5 mg/kg/day groups) was “epicardial hyperplasia with inflammation primarily on the epicardium of the atria” and the MTD (male Fischer rats; IV daily for 4 days, converted dose) was “about 4.5 mg/m^2”. For the same molecule, the unscheduled deaths (male Fischer rats; any treatment group) was “no unscheduled deaths” and the dose-limiting toxicities (male Fischer rats; rat, in vivo, iv) was “Kidney, heart, femoral bone, liver and urinary bladder toxicity”.
